ChEMBL document CHEMBL1201862, “PubChem BioAssay data set” (2004)
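Grown in 96-well plates, cells were treated for 48 hours with each compound at five concentrations. Insufficient inhibition: endpoint recorded as highest concentration tested. GI50: concentration for 50% inhibition of growth.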 The source made the active and inactive calls. Cut-off read from the data, not from the text of the source: active = GI50 up to about 1.1 µM and inactive = higher.

Columns and labels:
Assay in all cases: DTP human tumour cell line panel, 48 h
U-251 = system: U-251
NCI-H460 = system: NCI-H460
OVCAR-8 = system: OVCAR-8
HCC 2998 = system: HCC 2998
OVCAR-5 = system: OVCAR-5
M14 = system: M14
SNB-19 = system: SNB-19
SW-620 = system: SW-620
SK-MEL-5 = system: SK-MEL-5
Malme-3M = system: Malme-3M
SN12C = system: SN12C
CAKI-1 = system: CAKI-1
IGROV-1 = system: IGROV-1
EKVX = system: EKVX
OVCAR-3 = system: OVCAR-3
A498 = system: A498
SK-MEL-2 = system: SK-MEL-2
KM12 = system: KM12
UACC-257 = system: UACC-257
HT-29 = system: HT-29

Measured: GI50

CC1C(=O)C(C)C(c2ccccc2)N(N=O)C1c1ccccc1 (stereo not given)
inactive: U-251 60.1 µM | NCI-H460 > 592 µM | OVCAR-8 > 91.6 µM | HCC 2998 > 100 µM | OVCAR-5 > 527 µM | M14 283 µM | SNB-19 64.4 µM | SW-620 > 100 µM | SK-MEL-5 > 410 µM | Malme-3M > 318 µM | SN12C 400 µM | CAKI-1 184 µM | IGROV-1 > 72.9 µM | EKVX > 100 µM | OVCAR-3 197 µM | A498 247 µM | SK-MEL-2 224 µM | KM12 > 439 µM | UACC-257 > 548 µM | HT-29 > 570 µM

Nc1ccc(C(=O)N/C(=C\c2ccc3c(c2)OCO3)c2nc3ccc4c(c3[nH]2)C(=O)c2ccccc2C4=O)cc1
inactive: U-251 33 µM | NCI-H460 26.4 µM | OVCAR-8 29.6 µM | HCC 2998 43.3 µM | OVCAR-5 > 100 µM | M14 37.8 µM | SNB-19 30 µM | SW-620 27.2 µM | SK-MEL-5 29 µM | Malme-3M 61.8 µM | SN12C 30.1 µM | CAKI-1 14.7 µM | IGROV-1 17.5 µM | EKVX 31.8 µM | OVCAR-3 32.9 µM | A498 14.4 µM | SK-MEL-2 21.1 µM | KM12 17.8 µM | UACC-257 58.7 µM | HT-29 40.6 µM

CCCCCCCC/C=C\CCCCCCC/C=C1\C[C@](/C=C/C(=O)OC)(CO)OC1=O
inactive: U-251 1.85 µM | NCI-H460 3.44 µM | OVCAR-8 2.59 µM | HCC 2998 5.36 µM | OVCAR-5 5.98 µM | M14 1.62 µM | SNB-19 4.54 µM | SW-620 1.78 µM | SK-MEL-5 3.31 µM | Malme-3M 1.4 µM | SN12C 1.56 µM | CAKI-1 1.29 µM | IGROV-1 2.75 µM | EKVX 10.4 µM | OVCAR-3 5.32 µM | A498 8.34 µM | SK-MEL-2 8.41 µM | KM12 3.37 µM | UACC-257 12.6 µM | HT-29 5.08 µM

NC(=O)c1ccc(NCC2=CC(=O)C=CC2=O)cc1
inactive: U-251 22 µM | NCI-H460 > 100 µM | OVCAR-8 20.4 µM | HCC 2998 35.8 µM | OVCAR-5 23 µM | M14 16.9 µM | SNB-19 > 100 µM | SW-620 21.4 µM | SK-MEL-5 15.5 µM | Malme-3M 19.5 µM | SN12C 20.2 µM | CAKI-1 19.1 µM | IGROV-1 20.8 µM | EKVX 16.9 µM | OVCAR-3 16.3 µM | A498 33.9 µM | SK-MEL-2 20.4 µM | KM12 > 100 µM | UACC-257 21.1 µM | HT-29 22.1 µM

Cc1ccc(S(=O)(=O)N/N=C(\C(=O)Nc2cccc([N+](=O)[O-])c2)c2nc3ccc([N+](=O)[O-])cc3nc2O)cc1
inactive: U-251 70.3 µM | NCI-H460 33.5 µM | OVCAR-8 54.2 µM | HCC 2998 30.1 µM | OVCAR-5 46.3 µM | M14 > 100 µM | SNB-19 > 100 µM | SW-620 40.6 µM | SK-MEL-5 26 µM | Malme-3M 77.3 µM | SN12C > 100 µM | CAKI-1 23.2 µM | IGROV-1 > 100 µM | EKVX 33.5 µM | OVCAR-3 > 100 µM | A498 17.1 µM | SK-MEL-2 > 100 µM | KM12 37.9 µM | UACC-257 59.8 µM | HT-29 53 µM

CC(=O)N(CN1C(=O)CCC1C(=O)O)c1ccccc1 (stereo not given)
inactive: U-251 > 100 µM | NCI-H460 > 100 µM | OVCAR-8 > 52.4 µM | HCC 2998 > 100 µM | OVCAR-5 > 55.6 µM | M14 > 54.5 µM | SNB-19 > 55.1 µM | SW-620 > 100 µM | SK-MEL-5 > 58.7 µM | Malme-3M 29.8 µM | SN12C > 57.7 µM | CAKI-1 > 57.3 µM | IGROV-1 > 50.4 µM | EKVX > 53.8 µM | OVCAR-3 > 54.5 µM | A498 > 59.7 µM | SK-MEL-2 > 54.7 µM | KM12 > 55.3 µM | UACC-257 > 54.2 µM | HT-29 > 55 µM

O=S(=O)(c1ccccc1)n1c2cc3cccnc3nc2c2cccnc21
inactive: U-251 40.5 µM | NCI-H460 36.9 µM | OVCAR-8 74.1 µM | HCC 2998 > 100 µM | OVCAR-5 > 100 µM | M14 > 100 µM | SNB-19 40.1 µM | SW-620 44.7 µM | SK-MEL-5 54.3 µM | Malme-3M > 100 µM | SN12C 81.3 µM | CAKI-1 > 100 µM | IGROV-1 79.1 µM | EKVX > 100 µM | OVCAR-3 38.5 µM | A498 > 100 µM | SK-MEL-2 > 100 µM | KM12 > 100 µM | UACC-257 54.6 µM | HT-29 60.4 µM

COc1ccc(C(=O)OC2C=COC(C)C2OC(=O)c2ccc(OC)cc2)cc1 (stereo not given)
inactive: U-251 36.8 µM | NCI-H460 40.7 µM | OVCAR-8 23.6 µM | HCC 2998 > 58.1 µM | OVCAR-5 77.1 µM | M14 16.6 µM | SNB-19 41.5 µM | SW-620 15.6 µM | SK-MEL-5 16.7 µM | Malme-3M 18.2 µM | SN12C 23.3 µM | CAKI-1 28.8 µM | IGROV-1 37 µM | EKVX 36.9 µM | OVCAR-3 16.6 µM | A498 > 100 µM | SK-MEL-2 17.5 µM | KM12 19.1 µM | UACC-257 21 µM | HT-29 22.2 µM

CCc1cccc(C(C)C)c1NC1=C([n+]2ccc(C)cc2)C(=O)c2ccccc2C1=O.[O-][Cl+3]([O-])([O-])[O-]
active: U-251 0.887 µM | NCI-H460 0.564 µM | OVCAR-8 0.962 µM | M14 0.944 µM | SW-620 0.861 µM | SN12C 0.475 µM | IGROV-1 0.284 µM | EKVX 0.817 µM | OVCAR-3 0.647 µM | UACC-257 0.993 µM
inactive: HCC 2998 3.21 µM | OVCAR-5 5.3 µM | SNB-19 1.83 µM | SK-MEL-5 1.14 µM | Malme-3M 2.12 µM | CAKI-1 1.13 µM | A498 2.75 µM | SK-MEL-2 3.87 µM | KM12 2.77 µM | HT-29 1.82 µM

COc1cccc(C(NC2=NCCC=N2)c2cc3c(cc2O)OCO3)c1O (stereo not given)
inactive: U-251 17.7 µM | NCI-H460 29.8 µM | OVCAR-8 10.4 µM | HCC 2998 19.9 µM | OVCAR-5 36.6 µM | M14 27.4 µM | SNB-19 46.1 µM | SW-620 20.4 µM | SK-MEL-5 38.8 µM | Malme-3M 38.1 µM | SN12C 19.6 µM | CAKI-1 49.1 µM | IGROV-1 29.4 µM | EKVX > 100 µM | OVCAR-3 22 µM | A498 27.7 µM | SK-MEL-2 24.4 µM | KM12 32.8 µM | UACC-257 34.4 µM | HT-29 38.5 µM
